Data published in the supplement of paper PMC10307832.

Columns and labels:
Experiment in all cases: relative viability (nuclei count vs DMSO), 5 days (fraction); higher = more cells survive
RERF-LC-KJ = test system: RERF-LC-KJ
How it was run: (§1)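 Cells from lung cancer lines were seeded into 1536-well plates and, one day later, dosed by pin tool. Treatments were either a single drug or a fixed dose of an anchor drug with five library-drug doses (not always all listed) in √10 steps. After 5 days, nuclei were stained in a one-step fixation (final 0.05% Triton X-100, 1% formaldehyde, 1 ug/ml Hoechst) and counted on 4× images, and relative viability is the treated-to-vehicle nuclei ratio, as the median of duplicate plates.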

UMC-11 = test system: UMC-11
How it was run: as §1

NCI-H2087 = test system: NCI-H2087
How it was run: as §1

SK-MES-1 = test system: SK-MES-1
How it was run: as §1

BEN = test system: BEN
How it was run: as §1

LC-2-ad = test system: LC-2-ad
How it was run: as §1

NCI-H1395 = test system: NCI-H1395
How it was run: as §1

201T = test system: 201T
How it was run: as §1

LXF-289 = test system: LXF-289
How it was run: as §1

NCI-H2170 = test system: NCI-H2170
How it was run: as §1

HARA = test system: HARA
How it was run: as §1

HOP-62 = test system: HOP-62
How it was run: as §1

LOU-NH91 = test system: LOU-NH91
How it was run: as §1

COR-L 105 = test system: COR-L 105
How it was run: as §1

H3255 = test system: H3255
How it was run: as §1

NCI-H1993 = test system: NCI-H1993
How it was run: as §1

HCC-78 = test system: HCC-78
How it was run: as §1

EMC-BAC-2 = test system: EMC-BAC-2
How it was run: as §1

LU99A = test system: LU99A
How it was run: as §1

NCI-H2126 = test system: NCI-H2126
How it was run: as §1

SW 900 = test system: SW 900
How it was run: as §1

NCI-H650 = test system: NCI-H650
How it was run: as §1

`Cc1cn(-c2cc(NC(=O)c3ccc(C)c(Nc4nccc(-c5cccnc5)n4)c3)cc(C(F)(F)F)c2)cn1` [Nilotinib] + Nc1ncn([C@H]2C[C@H](O)[C@@H](CO)O2)c(=O)n1 [Decitabine] (partner 2 µM) was tested, and the relative viability (RERF-LC-KJ; first compound 0.001 µM) was 0.732, the relative viability (RERF-LC-KJ; first compound 0.003162 µM) was 0.796 and the relative viability (RERF-LC-KJ; first compound 0.01 µM) was 0.771. For the same compound, the relative viability (RERF-LC-KJ; first compound 0.03162 µM) was 0.653, the relative viability (RERF-LC-KJ; first compound 0.1 µM) was 0.449 and the relative viability (UMC-11; first compound 0.001 µM) was 0.607. The relative viability (UMC-11; first compound 0.003162 µM) was 0.591, the relative viability (UMC-11; first compound 0.01 µM) was 0.566 and the relative viability (UMC-11; first compound 0.03162 µM) was 0.551. The relative viability (UMC-11; first compound 0.1 µM) was 0.622, the relative viability (NCI-H2087; first compound 0.001 µM) was 0.202 and the relative viability (NCI-H2087; first compound 0.003162 µM) was 0.244. It also gave a relative viability (NCI-H2087; first compound 0.01 µM) of 0.261, a relative viability (NCI-H2087; first compound 0.03162 µM) of 0.18 and a relative viability (NCI-H2087; first compound 0.1 µM) of 0.131. The relative viability (SK-MES-1; first compound 0.001 µM) was 0.409, the relative viability (SK-MES-1; first compound 0.003162 µM) was 0.487 and the relative viability (SK-MES-1; first compound 0.01 µM) was 0.575. The relative viability (SK-MES-1; first compound 0.03162 µM) was 0.617, the relative viability (SK-MES-1; first compound 0.1 µM) was 0.46 and the relative viability (BEN; first compound 0.001 µM) was 0.787. The relative viability (BEN; first compound 0.003162 µM) was 0.727, the relative viability (BEN; first compound 0.01 µM) was 0.622 and the relative viability (BEN; first compound 0.03162 µM) was 0.801. The relative viability (BEN; first compound 0.1 µM) was 0.516, the relative viability (LC-2-ad; first compound 0.001 µM) was 0.8 and the relative viability (LC-2-ad; first compound 0.003162 µM) was 0.982. It also gave a relative viability (LC-2-ad; first compound 0.01 µM) of 0.796, a relative viability (LC-2-ad; first compound 0.03162 µM) of 0.859 and a relative viability (LC-2-ad; first compound 0.1 µM) of 0.803. For the same compound, the relative viability (NCI-H1395; first compound 0.001 µM) was 0.745, the relative viability (NCI-H1395; first compound 0.01 µM) was 0.798 and the relative viability (NCI-H1395; first compound 0.03162 µM) was 0.707. For the same compound, the relative viability (NCI-H1395; first compound 0.1 µM) was 0.891, the relative viability (201T; first compound 0.001 µM) was 0.851 and the relative viability (201T; first compound 0.003162 µM) was 0.973. It also gave a relative viability (201T; first compound 0.01 µM) of 0.944, a relative viability (201T; first compound 0.03162 µM) of 1.01 and a relative viability (201T; first compound 0.1 µM) of 0.814. For the same compound, the relative viability (LXF-289; first compound 0.001 µM) was 0.363, the relative viability (LXF-289; first compound 0.003162 µM) was 0.447 and the relative viability (LXF-289; first compound 0.01 µM) was 0.391. For the same compound, the relative viability (LXF-289; first compound 0.03162 µM) was 0.551, the relative viability (LXF-289; first compound 0.1 µM) was 0.61 and the relative viability (NCI-H2170; first compound 0.001 µM) was 0.488. The relative viability (NCI-H2170; first compound 0.003162 µM) was 0.553, the relative viability (NCI-H2170; first compound 0.01 µM) was 0.539 and the relative viability (NCI-H2170; first compound 0.03162 µM) was 0.56. For the same compound, the relative viability (NCI-H2170; first compound 0.1 µM) was 0.649, the relative viability (HARA; first compound 0.001 µM) was 0.383 and the relative viability (HARA; first compound 0.003162 µM) was 0.681. The relative viability (HARA; first compound 0.01 µM) was 0.856, the relative viability (HARA; first compound 0.03162 µM) was 0.47 and the relative viability (HARA; first compound 0.1 µM) was 0.649. The relative viability (HOP-62; first compound 0.003162 µM) was 0.276, the relative viability (HOP-62; first compound 0.03162 µM) was 0.464 and the relative viability (LOU-NH91; first compound 0.001 µM) was 0.776. It also gave a relative viability (LOU-NH91; first compound 0.003162 µM) of 0.864, a relative viability (LOU-NH91; first compound 0.01 µM) of 0.889 and a relative viability (LOU-NH91; first compound 0.03162 µM) of 0.898. It also gave a relative viability (LOU-NH91; first compound 0.1 µM) of 0.837, a relative viability (COR-L 105; first compound 0.001 µM) of 0.735 and a relative viability (COR-L 105; first compound 0.003162 µM) of 0.734. For the same compound, the relative viability (COR-L 105; first compound 0.01 µM) was 0.743, the relative viability (COR-L 105; first compound 0.03162 µM) was 0.732 and the relative viability (COR-L 105; first compound 0.1 µM) was 0.751. It also gave a relative viability (H3255; first compound 0.001 µM) of 0.549, a relative viability (H3255; first compound 0.003162 µM) of 0.659 and a relative viability (H3255; first compound 0.03162 µM) of 0.667. For the same compound, the relative viability (H3255; first compound 0.1 µM) was 0.692, the relative viability (NCI-H1993; first compound 0.001 µM) was 0.496 and the relative viability (NCI-H1993; first compound 0.003162 µM) was 0.694. The relative viability (NCI-H1993; first compound 0.01 µM) was 0.658, the relative viability (NCI-H1993; first compound 0.03162 µM) was 0.517 and the relative viability (NCI-H1993; first compound 0.1 µM) was 0.62. It also gave a relative viability (HCC-78; first compound 0.001 µM) of 0.702, a relative viability (HCC-78; first compound 0.003162 µM) of 0.576 and a relative viability (HCC-78; first compound 0.01 µM) of 0.666. It also gave a relative viability (HCC-78; first compound 0.03162 µM) of 0.669, a relative viability (HCC-78; first compound 0.1 µM) of 0.658 and a relative viability (EMC-BAC-2; first compound 0.001 µM) of 0.974. The relative viability (EMC-BAC-2; first compound 0.003162 µM) was 0.996, the relative viability (EMC-BAC-2; first compound 0.01 µM) was 1.02 and the relative viability (EMC-BAC-2; first compound 0.03162 µM) was 0.94. For the same compound, the relative viability (EMC-BAC-2; first compound 0.1 µM) was 1, the relative viability (LU99A; first compound 0.001 µM) was 0.909 and the relative viability (LU99A; first compound 0.003162 µM) was 1.11. The relative viability (LU99A; first compound 0.01 µM) was 0.905, the relative viability (LU99A; first compound 0.03162 µM) was 0.999 and the relative viability (LU99A; first compound 0.1 µM) was 0.436. It also gave a relative viability (NCI-H2126; first compound 0.001 µM) of 0.541, a relative viability (NCI-H2126; first compound 0.003162 µM) of 0.675 and a relative viability (NCI-H2126; first compound 0.01 µM) of 0.564. The relative viability (NCI-H2126; first compound 0.03162 µM) was 0.614, the relative viability (NCI-H2126; first compound 0.1 µM) was 0.568 and the relative viability (SW 900; first compound 0.003162 µM) was 0.579. The relative viability (SW 900; first compound 0.01 µM) was 0.724, the relative viability (SW 900; first compound 0.03162 µM) was 0.743 and the relative viability (SW 900; first compound 0.1 µM) was 0.577. It also gave a relative viability (NCI-H650; first compound 0.001 µM) of 0.295, a relative viability (NCI-H650; first compound 0.003162 µM) of 0.379 and a relative viability (NCI-H650; first compound 0.01 µM) of 0.387. The relative viability (NCI-H650; first compound 0.03162 µM) was 0.315 and the relative viability (NCI-H650; first compound 0.1 µM) was 0.306.
